Reference: patent US7223769B2, “Pyrimidine compounds and their use as pesticides” (Sumitomo Chemical Company, Limited, priority 2002, dated 2007)

Test system: Frankliniella occidentalis (Western flower thrips)
Assay: Test Example 2: sprayed cucumber leaf, larvae of Frankliniella occidentalis set free, surviving pests counted
Format: in vivo
Conditions: 500 ppm spray solution, 20 ml/cup, cucumber first true leaf, thirty larvae set free, after seven days
Protocol: Ten parts of each of the present compounds (2), (4), (6), (7), (8), (11), (12), (14), (16), (17), (19) to (24), (26), (28), (29), (34), (36) to (38), and (40); white carbon containing 50 parts of polyoxyethylene alkyl ether sulfate ammonium salt; and […] of water were mixed and pulverized by the wet grinding method to give a formulation for each compound. The formulation of each present compound was diluted with water so that the active ingredient concentration came to 500 ppm to prepare a spray solution.
A polyethylene cup was seeded with cucumber and a plant was grown until the first true leaf was developed, to which the above spray solution was applied at a ratio of 20 ml/cup. After the chemical solution sprayed to the cucumber were dried, the first true leaf was cut off and placed on a filter paper (70 mm in diameter) impregnated with water in a polyethylene cup (110 mm in diameter). Thirty larvae of Frankliniella occidentalis (Western flower thrips) were set free on the first true leaf, which was covered with a polyethylene cup. After seven days, the number of surviving pests was examined.

SMILES: CC#CCOc1cc(OC(C)C2CC2)ncn1 (stereo not drawn) [present compound (2), 4-(2-butynyloxy)-6-(1-cyclopropylethoxy)pyrimidine]
- number of surviving pests: 0

SMILES: CC#CCOc1cc(OC(C)C(C)CC)ncn1 (stereo not drawn) [present compound (16), 4-(2-butynyloxy)-6-(1,2-dimethylbutyloxy)pyrimidine]
- number of surviving pests: 0

SMILES: CC#CCOc1cc(OC(C)C(C)(C)Cl)ncn1 (stereo not drawn) [present compound (34), 4-(2-butynyloxy)-6-(2-chloro-1,2-dimethylpropyloxy)pyrimidine]
- number of surviving pests: 0

SMILES: CC#CCOc1cc(OC(C)C(Cl)Cl)ncn1 (stereo not drawn) [present compound (29), 4-(2-butynyloxy)-6-(2,2-dichloro-1-methylethyloxy)pyrimidine]
- number of surviving pests: 0

SMILES: CC#CCOc1cc(OCCC(C)(C)C)ncn1 [present compound (11), 4-(2-butynyloxy)-6-(3,3-dimethylbutyloxy)pyrimidine]
- number of surviving pests: 0

SMILES: CCC#CCOc1cc(OC(C)C(C)(C)F)ncn1 (stereo not drawn) [present compound (17), 4-(2-fluoro-1,2-dimethylpropyloxy)-6-(2-pentynyloxy)pyrimidine]
- number of surviving pests: 0

SMILES: CC#CCOc1cc(OC(C)C(C)C)ncn1 (stereo not drawn) [present compound (12), 4-(2-butynyloxy)-6-(1,2-dimethylpropyloxy)pyrimidine]
- number of surviving pests: 0

SMILES: CC#CCOc1cc(OCC(C)(C)F)ncn1 [present compound (28), 4-(2-butynyloxy)-6-(2-fluoro-2-methylpropyloxy)pyrimidine]
- number of surviving pests: 0

SMILES: CC#CCOc1cc(OCC(C)(C)C)ncn1 [present compound (6), 4-(2-butynyloxy)-6-(2,2-dimethylpropyloxy)pyrimidine]
- number of surviving pests: 0

SMILES: CCC#CCOc1cc(OCC(C)(C)Cl)ncn1 [present compound (40), 4-(2-pentynyloxy)-6-(2-chloro-2-methylpropyloxy)pyrimidine]
- number of surviving pests: 0

SMILES: CC#CCOc1cc(OC(C)C2(C)CC2)ncn1 (stereo not drawn) [present compound (8), 4-(2-butynyloxy)-6-[1-(1-methylcyclopropyl)ethyloxy]pyrimidine]
- number of surviving pests: 0

SMILES: CC#CCOc1cc(OC(C)C2CCCC2)ncn1 (stereo not drawn) [present compound (26), 4-(2-butynyloxy)-6-(1-cyclopentylethyloxy)pyrimidine]
- number of surviving pests: 0

SMILES: CC#CCOc1cc(OC(C)CC(C)(C)C)ncn1 (stereo not drawn) [present compound (7), 4-(2-butynyloxy)-6-(1,3,3-trimethylbutyloxy)pyrimidine]
- number of surviving pests: 0

SMILES: CC#CCOc1cc(OC(C)C(C)(C)F)ncn1 (stereo not drawn) [present compound (14), 4-(2-butynyloxy)-6-(2-fluoro-1,2-dimethylpropyloxy)pyrimidine]
- number of surviving pests: 0

SMILES: CC#CCOc1cc(OC(CC)C(C)(C)C)ncn1 (stereo not drawn) [present compound (4), 4-(2-butynyloxy)-6-(1-ethyl-2,2-dimethylpropyloxy)pyrimidine]
- number of surviving pests: 0
